# Measurements taken from US11458132B2, “Quinolin-2(1H)-one inhibitors of Late SV40 Factor” (TRUSTEES OF BOSTON UNIVERSITY, priority 2020, dated 2022).
# How the values were obtained:
# RPE cells [1] = test: Cell spreading area and circularity by microscopy; format: cell-based
# Protocol: Cells were washed as before, treated with Phalloidin-iFluor 488 Reagent (abcam, ab176753) for 1 hour in 1-5% BSA in PBS, followed by Hoechst 33342 (Thermo Fisher Scientific, H3570) for 5 minutes. Mounting medium (Fisher Scientific, P10144) and cover slips were applied onto dried cells. Individually discernible cells were imaged on an Olympus Fluoview 10i. Using ImageJ, the phalloidin channel was thresholded and area and circularity values were measured and integrated into swarmplots using Python's seaborn library.
# RPE cells [2] = test: Analysis of microtubule features by immunofluorescence; format: cell-based
# Protocol: Analysis of microtubule features by immunofluorescence: Because Y-27632 diminishes FQI1-induced cell compaction (FIGS. 10C and 10D) without affecting microtubule levels (FIGS. 9A and 9B), cells were pretreated with Y-27632 in order to maintain overall cellular shape, facilitating capture of structural or positional impact of FQI1 on microtubules. In addition, only cells with cell spreading areas larger than 1000 μm^2 were considered. Cells were seeded overnight in high n-dishes, treated as indicated in the figure legends, fixed with formaldehyde as described above, blocked in 5% BSA in PBS and stained overnight at 4° C. with anti-γ-tubulin (1:500, Abcam, ab11316) and anti-α-tubulin (1:500, Fisher Scientific, 62204). Samples were then incubated in goat anti-rabbit Cy5 (1:1000, Invitrogen, A10523), goat anti-mouse Alexa Fluor 546 (1:1000, Thermo Fisher Scientific, A11003), and Phalloidin-iFluor 488 Reagent. Hoechst 33342 and mounting medium were applied, before acquiring Z stack images at 60× magnification on an Olympus Fluoview 10i microscope.
# Using ImageJ, binary Z projections of Phalloidin and Hoechst channel stacks were merged with Z projections with average intensity of the α-tubulin channels. The Phalloidin channel was used as the region of interest for measurement of “integrated density” of the total α-tubulin intensity, which was plotted into swarmplots.
# To assess distribution of visible microtubule ends, the Hoechst, γ-tubulin, and α-tubulin stacks were converted into Z projections with maximum intensity. The Hoechst and γ-tubulin Z projections were thresholded and all channels were merged. A line was generated between the γ-tubulin signal and the center of the nucleus to identify the axis of cell movement; a line perpendicular to the first line and running through the center point of the nucleus divided the cell into posterior and anterior portions. Visible microtubule ends were counted using the Cell Counter plugin, excluding unattached microtubule fragments.
# RPE cells [3] = test: Cell cycle analysis by flow cytometry at end of wound healing; format: cell-based; conditions: 4 μM FQI1, 12-hour time-point
# Protocol: (§1) Cell cycle analysis by flow cytometry: After trypsinization, subsequent steps prior to staining were performed at 4° C. Cells in PBS were transferred dropwise into ethanol (final concentration of 70%) for overnight incubation. Fixed cells were washed with PBS and then incubated in 50 μg/ml propidium iodide and 10 μg/ml RNase A in PBS for 45 minutes at room temperature. After passage through a cell strainer, cell fluorescence was measured using a Becton Dickinson FACSCalibur. Ten thousand events were counted per sample. Histogram plots were generated using FlowJo.
# All the samples, including a “0 hour” synchronized and an asynchronous sample, were harvested and prepared for flow cytometry, as described above. The proportion of cells in their respective cell cycle phases was determined by applying the Dean-Jett-Fox model in the FlowJo Cell Cycle analysis tool.
# FH-B cells = test: Cell cycle analysis by flow cytometry; format: cell-based, human; conditions: asynchronous FH-B cells, 4 μM FQI1, 1 hour
# Protocol: as §1
# LSF and β-catenin = target: T1, LSF and β-catenin (Homo sapiens, UniProt Q12800); test: Immunoprecipitation of β-catenin probed for LSF in CRC cells; format: cell-based; conditions: 1 μM, 16 hours, HT-29 and HCT-116 cells
# T1 construct: In both these cell lines, LSF co-immunoprecipitated with β-catenin; endogenous in cells; host or cells: HT-29 and HCT-116
# T1 sequence (Q12800 1-502): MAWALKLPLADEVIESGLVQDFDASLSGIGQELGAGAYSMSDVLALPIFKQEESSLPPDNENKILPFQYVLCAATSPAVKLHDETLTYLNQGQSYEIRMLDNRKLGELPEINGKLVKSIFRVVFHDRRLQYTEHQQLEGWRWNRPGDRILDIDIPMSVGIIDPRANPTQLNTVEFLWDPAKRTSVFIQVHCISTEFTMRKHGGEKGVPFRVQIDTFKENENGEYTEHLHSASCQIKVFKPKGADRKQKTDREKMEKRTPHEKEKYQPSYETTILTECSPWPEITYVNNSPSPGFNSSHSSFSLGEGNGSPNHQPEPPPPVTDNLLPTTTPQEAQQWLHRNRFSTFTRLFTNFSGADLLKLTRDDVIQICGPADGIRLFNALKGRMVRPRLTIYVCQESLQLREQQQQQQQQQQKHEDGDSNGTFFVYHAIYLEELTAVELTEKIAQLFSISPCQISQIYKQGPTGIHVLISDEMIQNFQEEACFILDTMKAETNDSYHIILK
# Excerpt: Immunoprecipitation: The CRC cells were harvested. Proteins of interest were immunoprecipitated using the indicated antibodies at 1:100 concentration. The eluents were resolved by SDS polyacrylamide gel electrophoresis and probed with the indicated antibodies. All the antibodies for immunoblot and immunoprecipitation were acquired from Cell Signaling and were used at the recommended concentrations.
SMILES,"cell spreading area (RPE cells [1]; 4 μM FQI1, 1 hour)","circularity (RPE cells [1]; 4 μM FQI1 or 1 μM nocodazole, 1 hour)",front-rear pattern of visible microtubule ends (RPE cells [2]; 4 μM FQI1),"overall α-tubulin intensity (RPE cells [2]; 4 μM FQI1, 10 minutes, Y-27632 pretreated)","increase in the number of individually discernible microtubule ends (RPE cells [2]; 4 μM FQI1, 10 minutes, vs vehicle)",cells with a 4n DNA content (RPE cells [3]),cell cycle phases by cellular DNA profiling (FH-B cells),interaction of LSF and β-catenin (co-immunoprecipitation) (LSF and β-catenin)
"CCOc1ccccc1C1CC(=O)Nc2cc3c(cc21)OCO3 (centres unmarked) [FQI1, 8-(2-ethoxyphenyl)-7,8-dihydro-[1,3]dioxolo[4,5-g]quinolin-6(5H)-one]",did not respond to FQI1 with significant change in cell spreading area,significantly more circular in shape,shifted to a more anterior distribution,significant decrease in overall α-tubulin intensity,2.5 fold,~30%,no apparent shift in cell cycle phases,
"CCOc1cc(N(C)C)ccc1-c1cc(=O)[nH]c2cc3c(cc12)OCO3 [FQI2-34, 8-(4-(dimethylamino)-2-ethoxyphenyl)-[1,3]dioxolo[4,5-g]quinolin-6(5H)-one]",,,,,,,,consistently reduced this interaction
